Data on three compounds can be found in ChEMBL document CHEMBL4177524, “Discovery of hepatitis B virus capsid assembly inhibitors leading to a heteroaryldihydropyrimidine based clinical candidate (GLS4)” (Bioorg Med Chem, 2017).

The nature of data set [1]: Cytotoxicity in human HepG2.215 cells assessed as reduction in cell viability after 5 days by CCK8 assay. To be noted: HepG2.2.15 cells. In kind it is cell-based, HepG2 2.2.15. Background: Tetrazolium assays rely on reduction of a dye to a coloured formazan, in cell work by metabolically active cells.
The test system of data set [2] is Hepatitis B virus. Put plainly: Antiviral activity against telbivudine-resistant hepatitis B virus harboring reverse transcriptase L180M/M204V double mutant infected in human Huh7 cells assessed as reduction in intracellular DNA levels measured on day 7 by real-time PCR analysis. To be noted: Huh-7, 168 h. It is filed as functional, organism-based. (Real-time PCR tracks product formation cycle by cycle.)

The test system of data set [3] is Hepatitis B virus. Put plainly: Antiviral activity against telbivudine-resistant hepatitis B virus harboring reverse transcriptase L180M/M204V double mutant infected in human Huh7 cells assessed as reduction in secreted DNA levels measured on day 7 by real-time PCR analysis. It is filed as functional, organism-based. To be noted: Huh-7, 168 h.
Data set [4] has as its system Hepatitis B virus. Nature of the data set: Antiviral activity against telbivudine-resistant wild type hepatitis B virus infected in human Huh7 cells assessed as reduction in secreted DNA levels measured on day 7 by real-time PCR analysis. To be noted: Huh-7, 168 h. It is filed as functional, organism-based.
Data set [5] concerns Hepatitis B virus. Put plainly: Antiviral activity against telbivudine-resistant hepatitis B virus harboring reverse transcriptase M204I mutant infected in human Huh7 cells assessed as reduction in intracellular DNA levels measured on day 7 by real-time PCR analysis. It is filed as functional, organism-based. As to conditions: Huh-7, 168 h.
Data set [6] concerns Hepatitis B virus. Nature of the data set: Antiviral activity against telbivudine-resistant hepatitis B virus harboring reverse transcriptase M204I mutant infected in human Huh7 cells assessed as reduction in secreted DNA levels measured on day 7 by real-time PCR analysis. It is filed as functional, organism-based. To be noted: Huh-7, 168 h.
Data set [7] addresses Core antigen (Hepatitis B virus) (UniProt Q03732). Nature of the data set: Inhibition of hepatitis B virus capsid assembly infected in human HepG2.215 cells assessed as reduction in viral DNA replication measured on day 7 by real time PCR analysis. It is filed as cell-based.

Core antigen (Hepatitis B virus), sequence (Q03732 as listed by the source): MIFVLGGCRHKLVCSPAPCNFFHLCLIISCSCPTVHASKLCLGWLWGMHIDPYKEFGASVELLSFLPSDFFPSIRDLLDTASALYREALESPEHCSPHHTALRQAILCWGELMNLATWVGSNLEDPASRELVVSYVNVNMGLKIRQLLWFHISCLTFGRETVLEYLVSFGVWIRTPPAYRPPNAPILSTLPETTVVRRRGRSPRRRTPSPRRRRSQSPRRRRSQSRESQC

For orientation: CC50 means the concentration that lowers cell viability or growth by half. Turning to `C[C@H](Cn1cnc2c(N)ncnc21)OCP(=O)(O)O` [TENOFOVIR ANHYDROUS], the CC50 at 120 h in data set [1] amounted to 399 µM.

Usually EC50 stands for the concentration giving half of the maximal effect. Consider `Cc1cn([C@@H]2C[C@@H](O)[C@H](CO)O2)c(=O)[nH]c1=O` [TELBIVUDINE], for which the half-maximal effective concentration (EC50) is more than 20 µM in the data set with Hepatitis B virus [2]; more than 20 µM with Hepatitis B virus [3]; 0.569 µM in the data set on Hepatitis B virus [4]; more than 20 µM in the data set on Hepatitis B virus [5]; more than 20 µM with Hepatitis B virus [6]. In data set [1], the CC50 at 120 h is more than 200 µM.

As a reminder, the EC90 is the concentration at which the effect reaches the 90% level. Take `COC(=O)C1=C(C)NC(c2nccs2)=N[C@H]1c1ccc(F)cc1Cl`: the EC90 in data set [7] is 0.3 µM. The CC50 at 120 h in data set [1] is more than 45 µM.
